From the supplement of paper PMC11451515

Tested on: SEM cells
Assay: cell viability relative to DMSO control; higher = less cytotoxic
Details: 48 h
Method in brief: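 Leukemia cells (NOMO1 or SEM, 500 cells/well; P12-Ichikawa, 1000 cells/well) were seeded in 5 μl in 1536-well plates after at least four passages of adaptation to each medium. They received library compounds in DMSO by pin dosing, 11 threefold points from 47 μM to 0.79 nM. Luminescence with CellTiter-Glo One was read after 48 h at 37°C. Viability is stated per plate relative to DMSO wells, with cell-free wells as background.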

[1] = HPLM + 10% dialyzed FBS, 0.000781 µM
[2] = HPLM + 10% dialyzed FBS, 0.00234 µM
[3] = HPLM + 10% dialyzed FBS, 0.00702 µM
[4] = HPLM + 10% dialyzed FBS, 0.0211 µM
[5] = HPLM + 10% dialyzed FBS, 0.0632 µM
[6] = HPLM + 10% dialyzed FBS, 0.19 µM
[7] = HPLM + 10% dialyzed FBS, 0.569 µM
[8] = HPLM + 10% dialyzed FBS, 1.71 µM
[9] = HPLM + 10% dialyzed FBS, 5.12 µM
[10] = HPLM + 10% dialyzed FBS, 15.4 µM
[11] = HPLM + 10% dialyzed FBS, 46.1 µM
[12] = RPMI 5 mM glucose + 10% FBS, 0.000781 µM
[13] = RPMI 5 mM glucose + 10% FBS, 0.00234 µM
[14] = RPMI 5 mM glucose + 10% FBS, 0.00702 µM
[15] = RPMI 5 mM glucose + 10% FBS, 0.0211 µM
[16] = RPMI 5 mM glucose + 10% FBS, 0.0632 µM
[17] = RPMI 5 mM glucose + 10% FBS, 0.19 µM
[18] = RPMI 5 mM glucose + 10% FBS, 0.569 µM
[19] = RPMI 5 mM glucose + 10% FBS, 1.71 µM
[20] = RPMI 5 mM glucose + 10% FBS, 5.12 µM
[21] = RPMI 5 mM glucose + 10% FBS, 15.4 µM
[22] = RPMI 5 mM glucose + 10% FBS, 46.1 µM
[23] = RPMI 5 mM glucose + 10% dialyzed FBS, 0.000781 µM
[24] = RPMI 5 mM glucose + 10% dialyzed FBS, 0.00234 µM
[25] = RPMI 5 mM glucose + 10% dialyzed FBS, 0.00702 µM
[26] = RPMI 5 mM glucose + 10% dialyzed FBS, 0.0211 µM
[27] = RPMI 5 mM glucose + 10% dialyzed FBS, 0.0632 µM
[28] = RPMI 5 mM glucose + 10% dialyzed FBS, 0.19 µM
[29] = RPMI 5 mM glucose + 10% dialyzed FBS, 0.569 µM
[30] = RPMI 5 mM glucose + 10% dialyzed FBS, 1.71 µM
[31] = RPMI 5 mM glucose + 10% dialyzed FBS, 5.12 µM
[32] = RPMI 5 mM glucose + 10% dialyzed FBS, 15.4 µM
[33] = RPMI 5 mM glucose + 10% dialyzed FBS, 46.1 µM

| SMILES | cell viability [1] | cell viability [2] | cell viability [3] | cell viability [4] | cell viability [5] | cell viability [6] | cell viability [7] | cell viability [8] | cell viability [9] | cell viability [10] | cell viability [11] | cell viability [12] | cell viability [13] | cell viability [14] | cell viability [15] | cell viability [16] | cell viability [17] | cell viability [18] | cell viability [19] | cell viability [20] | cell viability [21] | cell viability [22] | cell viability [23] | cell viability [24] | cell viability [25] | cell viability [26] | cell viability [27] | cell viability [28] | cell viability [29] | cell viability [30] | cell viability [31] | cell viability [32] | cell viability [33] |
| --- | --- | --- | --- | --- | --- | --- | --- | --- | --- | --- | --- | --- | --- | --- | --- | --- | --- | --- | --- | --- | --- | --- | --- | --- | --- | --- | --- | --- | --- | --- | --- | --- | --- |
| CCCCCCCCOc1ccccc1C(=O)Nc1ccc(C(=O)OCC[N+](C)(CC)CC)cc1 | 105% | 115% | 101% | 105% | 102% | 112% | 108% | 96.6% | 73.9% | 91.2% | 57.2% | 98.2% | 93% | 84.5% | 102% | 96.9% | 102% | 97% | 85.6% | 49.5% | 93.5% | 33.4% | 97% | 109% | 90.4% | 99.9% | 107% | 121% | 104% | 95.3% | 75.5% | 118% | 30.7% |
| CCCc1nc2c(C)cc(-c3nc4ccccc4n3C)cc2n1Cc1ccc(-c2ccccc2C(=O)O)cc1 | 117% | 115% | 123% | 120% | 124% | 140% | 100% | 71.4% | 127% | 140% | 144% | 114% | 121% | 152% | 133% | 124% | 124% | 101% | 84.1% | 159% | 138% | 137% | 103% | 138% | 119% | 92.4% | 120% | 125% | 87.8% | 64% | 120% | 116% | 132% |
| NCCCC(O)(P(=O)(O)O)P(=O)(O)O.O.O.O.[Na+] | 141% | 106% | 118% | 120% | 122% | 118% | 125% | 110% | 71% | 56.6% | 15.4% | 124% | 125% | 109% | 130% | 112% | 122% | 99.3% | 101% | 22.5% | 16.6% | 6.56% | 125% | 111% | 133% | 118% | 122% | 113% | 110% | 116% | 37.5% | 27.9% | 7.61% |
| C/C(=C\c1csc(C)n1)[C@@H]1C[C@@H]2O[C@]2(C)CCC[C@H](C)[C@H](O)[C@@H](C)C(=O)C(C)(C)[C@@H](O)CC(=O)O1 | 20.1% | 19.1% | 23% | 36.1% | 21% | 22% | 19.7% | 19.5% | 18.2% | 20.3% | 19.9% | 11.4% | 15.3% | 17.3% | 19.1% | 16.8% | 17.3% | 15.8% | 14.1% | 13.1% | 14.9% | 16.9% | 20.7% | 18.4% | 14% | 50.3% | 20.6% | 16.9% | 14.3% | 16.2% | 16.6% | 16.3% | 15.6% |
| COCCCOc1ccnc(C[S+]([O-])c2nc3ccccc3[nH]2)c1C (configuration not stated) | 97% | 102% | 110% | 115% | 107% | 113% | 127% | 109% | 102% | 109% | 94.3% | 72.3% | 72.1% | 71.3% | 82.6% | 73.1% | 79% | 78.6% | 76.7% | 65.6% | 81.3% | 75.2% | 97.9% | 110% | 91.3% | 107% | 98.8% | 103% | 109% | 100% | 115% | 108% | 108% |
| CNC(=O)c1ccc(N2C(=S)N(c3ccc(C#N)c(C(F)(F)F)c3)C(=O)C2(C)C)cc1F | 87.9% | 96.9% | 42.8% | 113% | 105% | 113% | 112% | 109% | 117% | 121% | 105% | 71.3% | 74% | 9.73% | 74.8% | 73.9% | 81.9% | 86.3% | 72.2% | 90.1% | 76.1% | 64.1% | 87.7% | 99.6% | 31.2% | 116% | 109% | 111% | 104% | 110% | 104% | 110% | 87.9% |
| C[C@@H](NCc1cc2ccccc2[nH]1)c1cccc2ccccc12 | 80% | 80.5% | 86.2% | 83.3% | 77.7% | 107% | 89.7% | 95.9% | 89.2% | 89.7% | 41.9% | 84.1% | 86.6% | 87.2% | 90.3% | 74.5% | 92.2% | 97.5% | 84.4% | 92.9% | 85.9% | 39.5% | 90% | 84.1% | 86% | 82.9% | 71.7% | 101% | 93.3% | 93% | 93.1% | 85.6% | 57.9% |
| CO[C@H]1/C=C/O[C@@]2(C)Oc3c(C)c(O)c4c(O)c(c(/C=N/N5CCN(C)CC5)c(O)c4c3C2=O)NC(=O)/C(C)=C\C=C\[C@H](C)[C@H](O)[C@@H](C)[C@@H](O)[C@@H](C)[C@H](OC(C)=O)[C@@H]1C | 107% | 121% | 130% | 126% | 119% | 121% | 119% | 113% | 102% | 96.1% | 67% | 62.7% | 84.8% | 87.1% | 82.4% | 77.1% | 78.6% | 75.4% | 74.9% | 55% | 56% | 23.5% | 108% | 104% | 104% | 103% | 109% | 108% | 123% | 111% | 102% | 90.4% | 66.5% |
| O=C(C1CC1)N1CC[C@@H](Cn2c(-c3ccc(-c4ccc5occc5c4)cc3)nc3cnccc32)C1 | 94.6% | 91.1% | 106% | 108% | 98.8% | 107% | 115% | 108% | 104% | 121% | 102% | 73.9% | 89.5% | 99.9% | 97.9% | 108% | 101% | 99.9% | 110% | 101% | 103% | 85.9% | 113% | 102% | 101% | 111% | 112% | 119% | 129% | 121% | 108% | 114% | 108% |
| CN1CCN(Cc2ccc(NC(=O)Nc3ccc(Oc4cc(NC(=O)C5CC5)ncn4)cc3)cc2C(F)(F)F)CC1 | 86.5% | 72.2% | 54.1% | 53.4% | 51.4% | 25% | 6.43% | 5.04% | 3.88% | 3.17% | 0.399% | 103% | 80.1% | 53.9% | 49.1% | 41.6% | 23% | 4.1% | 2.81% | 2.25% | 1.45% | 0.371% | 94.9% | 72.4% | 44.6% | 36.5% | 46% | 23.7% | 5.01% | 4.22% | 3.2% | 2.37% | 0.407% |
| CC1(C)Cc2c(sc(NC(=S)NC(=O)c3ccccc3)c2C(=O)O)CO1 | 74.1% | 89.5% | 91.9% | 89.1% | 96.7% | 98.3% | 97.6% | 108% | 101% | 88.3% | 101% | 94% | 109% | 108% | 93.1% | 112% | 112% | 110% | 113% | 101% | 105% | 106% | 65.2% | 84% | 85.4% | 87.8% | 96.6% | 88.3% | 95.4% | 91.7% | 89.6% | 102% | 88.5% |
| CN1/C=C(\N=C(NC2=CC=C(C=C2)C(=O)N3CCOCC3)/C1=O)/C4=C(C)C(=CC=C4)NC(=O)C5=CC=C(C=C5)C(C)(C)C | 111% | 97.2% | 105% | 48.6% | 106% | 116% | 97.5% | 110% | 106% | 89.5% | 92.2% | 110% | 102% | 106% | 46.8% | 101% | 86.6% | 110% | 92.8% | 104% | 83.3% | 66% | 106% | 108% | 105% | 50.7% | 120% | 107% | 100% | 111% | 92.2% | 98.5% | 68.6% |
| CC(Cc1ccc(O)c(O)c1)(NN)C(=O)O (configuration not stated) | 103% | 121% | 130% | 125% | 122% | 131% | 105% | 112% | 108% | 119% | 79.9% | 117% | 130% | 122% | 127% | 126% | 119% | 99% | 121% | 110% | 113% | 76.1% | – | – | – | – | – | – | – | – | – | – | – |
| COC/1=C/[C@@H]2[C@@H]3CC4=C(C(=C(OC)C=C4)O)[C@]2(CCN3C)CC1=O | 116% | 121% | 130% | 122% | 133% | 139% | 135% | 119% | 128% | 115% | 129% | – | – | – | – | – | – | – | – | – | – | – | 106% | 128% | 121% | 116% | 135% | 139% | 146% | 127% | 122% | 137% | 125% |
| CC(C)C(=O)Nc1ncc(-c2cc(C(F)F)nn2-c2c(Cl)cccc2Cl)s1 | 109% | 117% | 120% | 121% | 130% | 121% | 133% | 146% | 124% | 114% | 48.7% | – | – | – | – | – | – | – | – | – | – | – | 102% | 114% | 140% | 130% | 124% | 132% | 138% | 142% | 134% | 126% | 57.5% |
